The source made the active and inactive calls. The rule behind the calls is not given here.
Tests used:
MCF7 [1] = assay: Induction of apoptosis in human MCF7 cells assessed as increase in caspase-3 gene expression by RT-PCR analysis; type: functional, cell-based
[2] = biological target: Nuclear factor NF-kappa-B complex (Homo sapiens) (UniProt Q00653+P19838+Q04206); assay: Inhibition of NF-kappaB activation in human MCF7 cells; type: cell-based
[3] = biological target: T1, Inhibitor of nuclear factor kappa-B kinase subunit alpha (Homo sapiens) (UniProt O15111); assay: Inhibition of human IKK expression in human MCF7 cells after 24 hrs by Western blot analysis; type: cell-based
T1 sequence (whole entry): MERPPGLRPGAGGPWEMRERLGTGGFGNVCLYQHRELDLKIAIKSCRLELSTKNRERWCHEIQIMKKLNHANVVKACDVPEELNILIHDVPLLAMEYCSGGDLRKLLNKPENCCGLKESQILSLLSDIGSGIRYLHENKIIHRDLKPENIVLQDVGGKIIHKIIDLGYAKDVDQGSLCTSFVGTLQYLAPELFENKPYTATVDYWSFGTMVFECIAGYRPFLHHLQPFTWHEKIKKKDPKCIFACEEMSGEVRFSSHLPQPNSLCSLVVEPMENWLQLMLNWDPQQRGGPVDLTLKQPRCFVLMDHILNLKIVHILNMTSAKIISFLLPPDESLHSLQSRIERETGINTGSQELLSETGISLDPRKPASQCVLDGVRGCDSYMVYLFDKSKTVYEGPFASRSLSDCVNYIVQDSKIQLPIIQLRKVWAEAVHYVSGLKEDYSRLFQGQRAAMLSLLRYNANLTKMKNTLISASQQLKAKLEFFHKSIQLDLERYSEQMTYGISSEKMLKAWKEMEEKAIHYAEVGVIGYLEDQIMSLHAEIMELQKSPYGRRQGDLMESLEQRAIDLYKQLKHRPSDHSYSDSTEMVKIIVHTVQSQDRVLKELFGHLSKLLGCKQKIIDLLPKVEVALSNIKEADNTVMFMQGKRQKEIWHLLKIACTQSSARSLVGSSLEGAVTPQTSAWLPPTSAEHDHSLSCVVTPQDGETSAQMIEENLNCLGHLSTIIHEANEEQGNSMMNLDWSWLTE

MCF7 [4] = assay: Induction of apoptosis in human MCF7 cells assessed as increase in DNA damage after 24 hrs by Hoechst staining based inverted fluorescent microscopy; type: functional, cell-based
MCF7 [5] = assay: Downregulation of Akt protein expression in human MCF7 cells at 20 to 60 uM by Western blot analysis; type: functional, cell-based
MCF7 [6] = assay: Inhibition of P65 protein expression in human MCF7 cells after 24 hrs by Western blot analysis; type: functional, cell-based
MCF7 [7] = assay: Cytotoxicity against human MCF7 cells assessed as cell viability at 40 uM after 24 hrs by MTT assay (Rvb =100%); type: functional; conditions: MCF7, 24 h, read-out: Activity
MCF7 [8] = assay: Cytotoxicity against human MCF7 cells assessed as cell viability at 40 uM after 36 hrs by MTT assay (Rvb =100%); type: functional; conditions: MCF7, 36 h, read-out: Activity
Caspase-3 = biological target: T2, Caspase-3 (Homo sapiens, UniProt P42574); assay: Binding affinity to procaspase-3 (unknown origin)
T2 sequence (P42574 whole entry): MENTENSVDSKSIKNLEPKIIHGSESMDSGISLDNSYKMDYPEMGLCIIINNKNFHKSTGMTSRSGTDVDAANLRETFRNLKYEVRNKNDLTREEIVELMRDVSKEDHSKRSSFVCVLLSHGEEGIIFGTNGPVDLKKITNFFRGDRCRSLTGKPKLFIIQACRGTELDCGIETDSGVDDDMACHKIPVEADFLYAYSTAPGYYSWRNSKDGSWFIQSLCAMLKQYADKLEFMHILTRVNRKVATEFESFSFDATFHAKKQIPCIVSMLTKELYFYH

MCF7 [9] = assay: Induction of apoptosis in human MCF7 cells assessed as increase in caspase-9 gene expression by RT-PCR analysis; type: functional, cell-based
[10] = biological target: T3, Inhibitor of nuclear factor kappa-B kinase subunit beta (Homo sapiens) (UniProt O14920); assay: Inhibition of human IKKbeta activation in human MCF7 cells by Western blot analysis; type: cell-based
T3 sequence (whole entry): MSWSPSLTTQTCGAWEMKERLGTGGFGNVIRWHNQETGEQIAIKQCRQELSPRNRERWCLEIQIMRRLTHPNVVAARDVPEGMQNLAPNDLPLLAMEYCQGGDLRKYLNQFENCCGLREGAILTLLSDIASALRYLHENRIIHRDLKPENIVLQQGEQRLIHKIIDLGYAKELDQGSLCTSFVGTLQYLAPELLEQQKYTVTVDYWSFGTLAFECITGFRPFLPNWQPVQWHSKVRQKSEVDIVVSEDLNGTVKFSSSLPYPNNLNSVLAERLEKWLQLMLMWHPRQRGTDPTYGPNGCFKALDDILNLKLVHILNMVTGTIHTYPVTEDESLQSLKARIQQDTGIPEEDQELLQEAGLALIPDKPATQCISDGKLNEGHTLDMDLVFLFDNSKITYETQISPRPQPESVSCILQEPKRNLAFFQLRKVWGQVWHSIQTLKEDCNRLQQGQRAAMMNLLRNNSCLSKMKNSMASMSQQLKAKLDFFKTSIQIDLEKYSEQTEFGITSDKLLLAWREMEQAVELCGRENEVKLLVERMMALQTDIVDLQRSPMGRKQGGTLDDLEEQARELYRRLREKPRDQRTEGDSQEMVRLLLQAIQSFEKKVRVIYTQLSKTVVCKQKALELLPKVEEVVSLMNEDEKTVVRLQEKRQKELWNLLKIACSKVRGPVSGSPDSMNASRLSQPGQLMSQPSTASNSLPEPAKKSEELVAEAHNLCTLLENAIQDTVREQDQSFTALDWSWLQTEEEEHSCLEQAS

MCF7 [11] = assay: Induction of apoptosis in human MCF7 cells assessed as increase in caspase-8 gene expression by RT-PCR analysis; type: functional, cell-based
MCF7 [12] = assay: Cytotoxicity against human MCF7 cells assessed as cell viability at 60 uM after 36 hrs by MTT assay (Rvb =100%); type: functional; conditions: MCF7, 36 h, read-out: Activity
MCF7 [13] = assay: Induction of apoptosis in human MCF7 cells assessed as increase in caspase-8 expression by Western blot analysis; type: functional, cell-based
MCF7 [14] = assay: Induction of apoptosis in human MCF7 cells assessed as increase in mitochondrial Apaf-1 release at 20 to 60 uM after 24 hrs by Western blot analysis; type: functional, cell-based
MCF7 [15] = assay: Downregulation of PI3K gene expression in human MCF7 cells at 20 to 60 uM by RT-PCR analysis; type: functional, cell-based
MCF7 [16] = assay: Downregulation of Akt gene expression in human MCF7 cells at 20 to 60 uM by RT-PCR analysis; type: functional, cell-based
MCF7 [17] = assay: Induction of apoptosis in human MCF7 cells assessed as down-regulation of Bcl-2 protein expression at 20 to 60 uM after 24 hrs by Western blot analysis; type: functional, cell-based
MCF7 [18] = assay: Induction of apoptosis in human MCF7 cells assessed as increase in mitochondrial cytochrome C release at 20 to 60 uM after 24 hrs by Western blot analysis; type: functional, cell-based
MCF7 [19] = assay: Induction of apoptosis in human MCF7 cells assessed as up-regulation of Bax gene expression at 20 to 60 uM after 24 hrs by RT-PCR analysis; type: functional, cell-based
MCF7 [20] = assay: Inhibition of P50 protein expression in human MCF7 cells after 24 hrs by Western blot analysis; type: functional, cell-based
MCF7 [21] = assay: Effect on phosphorylation of Akt in human MCF7 cells at 20 to 60 uM by Western blot analysis; type: cell-based
MCF7 [22] = assay: Induction of apoptosis in human MCF7 cells assessed as increase in caspase-9 expression by Western blot analysis; type: functional, cell-based
MCF7 [23] = assay: Induction of apoptosis in human MCF7 cells assessed as increase in DNA fragmentation […] by agarose gel electrophoresis; type: functional, cell-based
MCF7 [24] = assay: Cytotoxicity against human MCF7 cells assessed as cell viability at 20 uM after 24 hrs by MTT assay (Rvb =100%); type: functional; conditions: MCF7, 24 h, read-out: Activity
MCF7 [25] = assay: Cytotoxicity against human MCF7 cells assessed as cell viability at 20 uM after 36 hrs by MTT assay (Rvb =100%); type: functional; conditions: MCF7, 36 h, read-out: Activity
MCF7 [26] = assay: Downregulation of PI3K protein expression in human MCF7 cells at 20 to 60 uM by Western blot analysis; type: functional, cell-based
MCF7 [27] = assay: Induction of apoptosis in human MCF7 cells assessed as increase in caspase-3 expression by Western blot analysis; type: functional, cell-based
MCF7 [28] = assay: Cytotoxicity against human MCF7 cells assessed as cell viability after 24 to 36 hrs by MTT assay; type: functional, cell-based
[29] = biological target: T1, Inhibitor of nuclear factor kappa-B kinase subunit alpha (Homo sapiens); assay: Inhibition of human IKKalpha activation in human MCF7 cells by Western blot analysis; type: cell-based
MCF7 [30] = assay: Cytotoxicity against human MCF7 cells assessed as cell viability at 20 uM by MTT assay; type: functional, cell-based; conditions: TDE = time-dependent effect
MCF7 [31] = assay: Induction of apoptosis in human MCF7 cells assessed as up-regulation of Bax protein expression at 20 to 60 uM after 24 hrs by Western blot analysis; type: functional, cell-based
MCF7 [32] = assay: Cytotoxicity against human MCF7 cells assessed as cell viability at 60 uM after 24 hrs by MTT assay (Rvb =100%); type: functional; conditions: MCF7, 24 h, read-out: Activity
[33] = biological target: Apoptosis regulator Bcl-2 (Homo sapiens, UniProt P10415); assay: Binding affinity to Bcl-2 (unknown origin)
Apoptosis regulator Bcl-2, sequence (P10415 whole entry): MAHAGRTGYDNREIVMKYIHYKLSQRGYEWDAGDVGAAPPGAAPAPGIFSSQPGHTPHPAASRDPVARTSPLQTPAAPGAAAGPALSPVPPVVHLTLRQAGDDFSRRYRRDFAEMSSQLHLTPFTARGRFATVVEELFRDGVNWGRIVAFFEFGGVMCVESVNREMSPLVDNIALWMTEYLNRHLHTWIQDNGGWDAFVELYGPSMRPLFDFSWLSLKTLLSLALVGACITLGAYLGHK

Nuclear factor NF-kappa-B complex (Homo sapiens), sequence (P19838 whole entry, looked up): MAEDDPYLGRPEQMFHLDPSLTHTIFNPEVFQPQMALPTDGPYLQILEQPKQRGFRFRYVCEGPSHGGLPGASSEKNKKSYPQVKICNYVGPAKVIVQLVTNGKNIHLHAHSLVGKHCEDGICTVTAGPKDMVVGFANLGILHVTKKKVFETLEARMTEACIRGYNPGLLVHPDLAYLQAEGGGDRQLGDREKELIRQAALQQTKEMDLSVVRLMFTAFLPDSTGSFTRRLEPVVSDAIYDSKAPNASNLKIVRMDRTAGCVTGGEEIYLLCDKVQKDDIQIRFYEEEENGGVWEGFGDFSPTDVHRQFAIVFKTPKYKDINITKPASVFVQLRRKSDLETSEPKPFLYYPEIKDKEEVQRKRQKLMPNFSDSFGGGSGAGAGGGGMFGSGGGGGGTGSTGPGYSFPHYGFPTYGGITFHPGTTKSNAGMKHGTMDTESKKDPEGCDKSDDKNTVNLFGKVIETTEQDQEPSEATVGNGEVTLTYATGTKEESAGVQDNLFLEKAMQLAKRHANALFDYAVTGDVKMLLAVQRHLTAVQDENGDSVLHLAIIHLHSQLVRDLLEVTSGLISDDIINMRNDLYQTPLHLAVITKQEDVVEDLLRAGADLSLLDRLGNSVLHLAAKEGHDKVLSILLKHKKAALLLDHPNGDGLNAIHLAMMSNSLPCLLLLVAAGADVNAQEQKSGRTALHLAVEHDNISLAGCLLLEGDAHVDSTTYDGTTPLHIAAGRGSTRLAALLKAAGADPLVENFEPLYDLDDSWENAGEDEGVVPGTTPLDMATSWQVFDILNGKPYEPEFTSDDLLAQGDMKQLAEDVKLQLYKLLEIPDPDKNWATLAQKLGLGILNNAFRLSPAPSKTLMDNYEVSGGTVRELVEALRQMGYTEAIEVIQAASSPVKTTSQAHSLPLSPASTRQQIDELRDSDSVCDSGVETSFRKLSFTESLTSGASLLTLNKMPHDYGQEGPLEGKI
Nuclear factor NF-kappa-B complex (Homo sapiens), sequence (Q00653 whole entry, looked up): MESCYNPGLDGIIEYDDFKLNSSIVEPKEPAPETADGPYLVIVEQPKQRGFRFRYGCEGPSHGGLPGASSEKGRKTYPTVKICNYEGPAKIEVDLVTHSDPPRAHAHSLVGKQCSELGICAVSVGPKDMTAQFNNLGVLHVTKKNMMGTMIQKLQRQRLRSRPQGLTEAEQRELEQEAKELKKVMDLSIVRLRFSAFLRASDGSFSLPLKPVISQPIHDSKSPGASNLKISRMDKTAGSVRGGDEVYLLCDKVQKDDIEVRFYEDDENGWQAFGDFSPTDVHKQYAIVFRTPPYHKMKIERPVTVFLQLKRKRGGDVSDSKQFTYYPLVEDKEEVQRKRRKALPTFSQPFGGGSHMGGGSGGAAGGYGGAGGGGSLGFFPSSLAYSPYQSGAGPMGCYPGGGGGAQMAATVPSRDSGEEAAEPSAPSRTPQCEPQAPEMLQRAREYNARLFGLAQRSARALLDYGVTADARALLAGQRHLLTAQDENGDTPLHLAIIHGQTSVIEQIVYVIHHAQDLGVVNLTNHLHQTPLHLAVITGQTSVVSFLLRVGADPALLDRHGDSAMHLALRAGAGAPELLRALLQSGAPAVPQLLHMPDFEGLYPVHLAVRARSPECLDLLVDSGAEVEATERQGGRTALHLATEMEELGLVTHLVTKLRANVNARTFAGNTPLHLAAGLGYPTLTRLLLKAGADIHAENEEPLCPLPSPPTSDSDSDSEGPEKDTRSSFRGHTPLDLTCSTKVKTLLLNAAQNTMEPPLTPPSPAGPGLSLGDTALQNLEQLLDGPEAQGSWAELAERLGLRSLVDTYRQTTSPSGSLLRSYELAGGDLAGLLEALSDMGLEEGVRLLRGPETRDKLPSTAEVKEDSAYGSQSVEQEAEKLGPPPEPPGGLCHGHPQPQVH
Nuclear factor NF-kappa-B complex (Homo sapiens), sequence (Q04206 whole entry, looked up): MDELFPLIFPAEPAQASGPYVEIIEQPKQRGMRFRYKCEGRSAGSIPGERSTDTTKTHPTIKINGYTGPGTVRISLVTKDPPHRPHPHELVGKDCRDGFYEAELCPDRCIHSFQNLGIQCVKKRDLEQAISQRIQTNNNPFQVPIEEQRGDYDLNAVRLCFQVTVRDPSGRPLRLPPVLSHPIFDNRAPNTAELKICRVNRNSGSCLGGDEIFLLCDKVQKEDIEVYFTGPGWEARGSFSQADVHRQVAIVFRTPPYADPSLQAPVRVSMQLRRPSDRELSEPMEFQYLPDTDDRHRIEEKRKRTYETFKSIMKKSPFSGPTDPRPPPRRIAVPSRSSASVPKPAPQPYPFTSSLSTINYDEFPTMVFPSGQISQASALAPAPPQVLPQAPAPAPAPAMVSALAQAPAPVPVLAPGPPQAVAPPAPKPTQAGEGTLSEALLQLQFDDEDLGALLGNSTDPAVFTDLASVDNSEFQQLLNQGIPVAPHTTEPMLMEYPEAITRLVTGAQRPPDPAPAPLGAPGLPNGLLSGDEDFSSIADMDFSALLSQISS

O=C1CC[C@H](O)c2cccc(O)c21
Activity (MCF7 [1]): Dose-dependent effect | inhibition [2]: Dose-dependent effect | inhibition [3]: Active | Activity (MCF7 [4]): Dose-dependent effect | inhibition (MCF7 [5]): Active | inhibition (MCF7 [6]): Dose-dependent effect | viability at 40 µM (MCF7 [7]): 89% | viability at 40 µM (MCF7 [8]): 66% | Ki (Caspase-3): 732 µM | Activity (MCF7 [9]): Dose-dependent effect | inhibition [10]: Active | Activity (MCF7 [11]): Dose-dependent effect | viability at 60 µM (MCF7 [12]): 50% | Activity (MCF7 [13]): Dose-dependent effect | Activity (MCF7 [14]): Active | inhibition (MCF7 [15]): Active | inhibition (MCF7 [16]): Active | inhibition (MCF7 [17]): Active | Activity (MCF7 [18]): Active | Activity (MCF7 [19]): Active | inhibition (MCF7 [20]): Dose-dependent effect | inhibition (MCF7 [21]): inactive | Activity (MCF7 [22]): Dose-dependent effect | Activity (MCF7 [23]): Dose-dependent effect | viability at 20 µM (MCF7 [24]): 97% | viability at 20 µM (MCF7 [25]): 87% | inhibition (MCF7 [26]): Active | Activity (MCF7 [27]): Dose-dependent effect | inhibition (MCF7 [28]): Dose-dependent effect | inhibition [29]: Active | inhibition (MCF7 [30]): tde | Activity (MCF7 [31]): Active | viability at 60 µM (MCF7 [32]): 70% | Ki [33]: 475 µM
